Reference: patent publication US8188078B2 (Sanofi-Aventis, priority 2007, dated 2012)

Tests used:
c-MET = molecular target: T1, c-MET (Homo sapiens, UniProt P08581); assay: Test A: HTRF Met test in 96-well format; format: biochemical
T1 construct: The recombinant DNA His-Tev-MET (956-1390) in pFastBac(Invitrogen); His (N, cleaved yes); Tev (TEV protease site) (N, cleaved yes); made in house; host or cells: SF21 insect cells (baculovirus, pFastBac)
Experimental: I) Expression and Purification of MET, Cytoplasmic Domain
The recombinant DNA His-Tev-MET (956-1390) in pFastBac(Invitrogen) is transfected in insect cells and after several stages of viral amplification, the final stock of baculovirus is tested for expression of the protein of interest.
After infection for 72 h at 27° C. with the recombinant virus, the SF21 cell cultures are harvested by centrifugation and the cellular deposits are stored at −80° C.
The cellular deposits are resuspended in the lysis buffer (buffer A [50 mM HEPES, pH 7.5, 250 mM NaCl, Glycerol 10%, TECP 1 mM]; +cocktail of protease inhibitors Roche Diagnostics without EDTA, ref 1873580), stirred at 4° C. until homogeneous, then lysed mechanically using apparatus of the “Dounce” type.
After centrifugation, the lysis supernatant is incubated for 2 h at 4° C. with Nickel Chelate resin (His-Trap 6 Fast Flow™, GE HealthCare). After washing with 20 volumes of Tp A, the suspension is packed in a column, and the proteins are eluted with a gradient of buffer B ([…]+290 mM imidazole).
The fractions containing the protein of interest with a view to electrophoretic analysis (SDS PAGE) are collected, concentrated by ultrafiltration (cut-off 10 kDa) and injected in an exclusion chromatography column (Superdex™ 200, GE HealthCare) equilibrated with buffer A.
After enzymatic cleavage of the tag Histidine, the protein is reinjected in a new IMAC Nickel Chelate chromatography column (His-Trap 6 Fast Flow™, GE HealthCare) equilibrated with Buffer A. The fractions eluted with a gradient of buffer B and containing the protein of interest after electrophoresis (SDS PAGE), are finally collected and stored at −80° C.
For the production of autophosphorylated protein, the preceding fractions are incubated for 1 h at room temperature after adding ATP 2 mM, MgCl2 2 mM, and Na3VO4 4 mM. After stopping the reaction with 5 mM of EDTA, the reaction mixture is injected in a HiPrep desalting column (GE HealthCare) equilibrated beforehand with buffer A+Na3VO4 4 mM; the fractions containing the protein of interest (SDS PAGE analysis) are collected and stored at −80° C. The degree of phosphorylation is verified by mass spectrometry (LC-MS), and by peptide mapping.
A) HTRF Met test in 96-well format
In a final volume of 50 μl of enzymatic reaction mixture, final c-MET 5 nM is incubated in the presence of the molecule to be tested (for a final concentration range from 0.17 nM to 10 μM, final DMSO 3%) in buffer MOPS 10 mM pH 7.4, DTT 1 mM, Tween 20 0.01%. The reaction is initiated by the substrate solution to obtain the final concentrations of poly-(GAT) 1 μg/ml, ATP 10 μM and MgCl2 5 mM. After incubation for 10 min at room temperature, the reaction is stopped with a mix of 30 μl to obtain a final solution of Hepes 50 mM pH 7.5, potassium fluoride 500 mM, BSA 0.1% and EDTA 133 mM in the presence of 80 ng Streptavidin 61SAXLB Cis-Bio Int. and 18 ng anti-phosphotyrosine Mab PT66-Europium Cryptate per well. After 2 hours of incubation at room temperature, reading is carried out at 2 wavelengths 620 nm and 665 nm in a reader for the TRACE/HTRF technique and the percentage inhibition is calculated according to the 665/620 ratios.

MKN45 cells = assay: Test D: cellular proliferation by 14C-thymidine pulse, MKN45 cells; format: cell-based; details: Homo sapiens, MKN-45, cellular proliferation by 14C-thymidine pulse; cell line not stated (HCT116 or MKN45)
Experimental: D) Measurement of Cellular Proliferation by 14C-Thymidine Pulse
The cells are sown in Cytostar 96-well plates under 180 μl for 4 hours at 37° C. and 5% CO2: The HCT116 cells at a rate of 2500 cells per well in DMEM medium+10% foetal calf serum+1% of L-glutamine and the MKN45 cells at a rate of 7500 cells per well in RPMI medium+10% foetal calf serum+1% of L-glutamine. After said incubation for 4 hours, the products are added under 10 μl in 20-times concentrated solution according to the method of dilution stated for ELISA. The products are tested at 10 concentrations in duplicate from 10000 nM to 0.3 nM in steps of 3.
After treatment for 72 h, add 10 μl of 14C-thymidine at 10 μCi/ml to obtain 0.1 μCi per well. The incorporation of 14C-thymidine is measured on a Micro-Beta (Perkin-Elmer) after 24 hours of pulse and 96 h of treatment.
All the stages of the test are automated on the BIOMEK 2000 or TECAN stations.

MET = molecular target: T2, MET (Homo sapiens, UniProt P08581); assay: Test C: inhibition of the autophosphorylation of MET, ELISA technique (pppY1230, 1234, 1235), MKN45 cells; format: cell-based
T2 construct: endogenous in cells; host or cells: MKN45 cells
T2 sequence (P08581 25-1390): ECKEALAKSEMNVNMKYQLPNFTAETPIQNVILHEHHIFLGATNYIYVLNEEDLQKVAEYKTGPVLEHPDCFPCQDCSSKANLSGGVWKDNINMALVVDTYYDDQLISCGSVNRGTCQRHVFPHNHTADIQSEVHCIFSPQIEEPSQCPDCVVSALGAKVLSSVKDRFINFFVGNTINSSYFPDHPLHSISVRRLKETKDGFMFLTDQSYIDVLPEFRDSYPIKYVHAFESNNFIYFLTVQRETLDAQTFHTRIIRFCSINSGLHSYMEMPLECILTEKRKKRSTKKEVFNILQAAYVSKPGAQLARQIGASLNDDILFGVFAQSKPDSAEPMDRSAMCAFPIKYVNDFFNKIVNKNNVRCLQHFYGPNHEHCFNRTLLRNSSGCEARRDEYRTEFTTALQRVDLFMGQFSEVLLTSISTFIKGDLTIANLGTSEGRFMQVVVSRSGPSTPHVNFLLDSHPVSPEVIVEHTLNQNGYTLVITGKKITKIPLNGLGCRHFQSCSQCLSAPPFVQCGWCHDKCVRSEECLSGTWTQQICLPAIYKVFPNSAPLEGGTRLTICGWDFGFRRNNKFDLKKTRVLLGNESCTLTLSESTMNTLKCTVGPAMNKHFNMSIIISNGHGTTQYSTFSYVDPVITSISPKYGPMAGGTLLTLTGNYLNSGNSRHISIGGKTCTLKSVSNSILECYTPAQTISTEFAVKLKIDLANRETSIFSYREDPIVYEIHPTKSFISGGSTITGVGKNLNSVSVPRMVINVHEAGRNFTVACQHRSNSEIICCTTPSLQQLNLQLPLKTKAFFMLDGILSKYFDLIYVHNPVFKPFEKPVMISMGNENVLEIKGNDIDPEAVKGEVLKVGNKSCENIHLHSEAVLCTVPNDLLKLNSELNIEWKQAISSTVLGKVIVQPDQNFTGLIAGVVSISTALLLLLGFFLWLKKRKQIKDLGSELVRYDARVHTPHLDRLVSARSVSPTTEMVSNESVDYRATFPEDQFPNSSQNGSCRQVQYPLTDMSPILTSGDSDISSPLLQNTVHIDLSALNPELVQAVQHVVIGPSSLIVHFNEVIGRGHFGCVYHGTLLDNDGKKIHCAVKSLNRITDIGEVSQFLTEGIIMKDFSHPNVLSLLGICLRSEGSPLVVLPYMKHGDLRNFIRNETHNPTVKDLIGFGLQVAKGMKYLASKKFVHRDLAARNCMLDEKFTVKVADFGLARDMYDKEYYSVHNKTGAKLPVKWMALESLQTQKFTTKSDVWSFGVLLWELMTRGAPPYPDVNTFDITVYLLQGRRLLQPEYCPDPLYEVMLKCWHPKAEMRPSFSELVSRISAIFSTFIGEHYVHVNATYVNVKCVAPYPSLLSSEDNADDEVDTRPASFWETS
Experimental: C) Inhibition of the Autophosphorylation of MET; ELISA Technique (pppY1230, 1234, 1235)
a) Cellular lysates: Sow the MKN45 cells in a 96-well plate (Cell coat BD polylysine) at 20 000 cells/well under 200 μl of medium RPMI+10% FCS+1% L-glutamine. Leave to adhere to the incubator for 24 h.
The cells are treated on the day after sowing with the products at 6 concentrations in duplicate for 1 h. At least 3 control wells are treated with the same amount of final DMSO.
Dilution of the products: Stock at 10 mM in pure DMSO—range from 10 mM to 30 μM with steps of 3 of pure DMSO—Intermediate dilutions to 1/50 in culture medium then taking of 10 μl added directly to the cells (200 μl): final range from 10000 to 30 nM.
At the end of incubation, carefully remove the supernatant and rinse with 200 μl of PBS. Then put 100 μl of lysis buffer directly in the wells on ice and incubate at 4° C. for 30 minutes. Lysis buffer: 10 mM Tris, HCl pH7.4, 100 mM NaCl, 1 mM EDTA, 1 mM EGTA, 1% Triton X-100, 10% glycerol, 0.1% SDS, 0.5% deoxycholate, 20 mM NaF, 2 mM Na3VO4, 1 mM PMSF and antiprotease cocktail.
The 100 μl of lysates are transferred to a V-bottomed polypropylene plate and ELISA is performed next or the plate is frozen at −80° C.
b) ELISA PhosphoMET BioSource Kit KH00281
In each well of the plate from the kit, add 70 μl of dilution buffer from the kit+30 μL of cell lysate or 30 μl of lysis buffer for the blank. Incubate for 2 h at room temperature, stirring gently.
Rinse the wells 4 times with 400 μl of washing buffer from the kit. Incubate with 100 μl of anti-phospho MET antibodies for 1 h at room temperature.
Rinse the wells 4 times with 400 μl of washing buffer from the kit. Incubate with 100 μl of anti-rabbit HRP antibodies for 30 minutes at room temperature (except for the wells with chromogen only).
Rinse the wells 4 times with 400 μl of washing buffer from the kit. Add 100 μL of chromogen and incubate for 30 minutes in the dark at room temperature.
Stop the reaction with 100 μl of stop solution. Read at once at […] 0.1 second in the Wallac Victor plate reader.
The products of formula (I) as defined above show cellular activity in this test between 10 nM and 10 μM.

T1 sequence (P08581 956-1390): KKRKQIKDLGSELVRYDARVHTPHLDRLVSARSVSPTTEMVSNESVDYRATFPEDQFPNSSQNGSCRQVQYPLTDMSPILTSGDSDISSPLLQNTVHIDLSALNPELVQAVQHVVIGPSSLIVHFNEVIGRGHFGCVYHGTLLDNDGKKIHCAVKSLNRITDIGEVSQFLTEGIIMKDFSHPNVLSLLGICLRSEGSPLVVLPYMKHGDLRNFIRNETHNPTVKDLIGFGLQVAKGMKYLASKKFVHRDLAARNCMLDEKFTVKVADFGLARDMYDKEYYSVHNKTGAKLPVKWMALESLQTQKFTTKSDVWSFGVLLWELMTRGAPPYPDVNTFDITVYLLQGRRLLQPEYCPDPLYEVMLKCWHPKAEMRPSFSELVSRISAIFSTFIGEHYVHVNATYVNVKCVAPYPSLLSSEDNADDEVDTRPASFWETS

Row | Structure (SMILES) | IC50 (c-MET) | IC50 (MKN45 cells) | melting point | IC50 (MET)
1 | O=C(NCCN1CCOCC1)Nc1nc2ccc(OCc3cc(Cl)nc(Cl)c3)cc2s1 [Example 16, 1-{6-[(2,6-dichloropyridin-4-yl)methoxy]-1,3-benzothiazol-2-yl}-3-(2-morpholin-4-ylethyl)urea] | 100 to 10000 nM | > 10000 nM | 193 °C | 
2 | Cc1cc(COc2ccc3nc(NC(=O)NCCN4CCOCC4)sc3c2)n(C)n1 [Example 20, 1-{6-[(1,3-dimethyl-1H-pyrazol-5-yl)methoxy]-1,3-benzothiazol-2-yl}-3-(2-morpholin-4-ylethyl)urea] | 100 to 10000 nM | > 10000 nM | 160 °C | 
3 | O=C(Nc1nc2cc(F)c(OCc3c(Cl)cccc3Cl)cc2s1)C1CC1 [Example 22, N-{6-[(2,6-dichlorobenzyl)oxy]-5-fluoro-1,3-benzothiazol-2-yl}cyclopropanecarboxamide] | < 100 nM | > 10000 nM | 215 °C | 500 to 10000 nM
4 | CC(Oc1ccc2nc(N)sc2c1)c1c(Cl)ccc(F)c1Cl (stereo not drawn) [Example 23, 6-[1-(2,6-dichloro-3-fluorophenyl)ethoxy]-1,3-benzothiazol-2-amine] | 100 to 10000 nM | > 10000 nM | 186 to 194 °C | 
5 | Cc1ccc(F)c(C(C)Oc2ccc3nc(N)sc3c2)c1Cl (stereo not drawn) [Example 27, 6-[1-(2-chloro-6-fluoro-3-methylphenyl)ethoxy]-1,3-benzothiazol-2-amine] | 100 to 10000 nM | > 10000 nM | 170 °C | 
6 | CC(Oc1ccc2nc(NC(=O)NCCN3CCOCC3)sc2c1)c1c(F)ccc(Cl)c1F (stereo not drawn) [Example 63, 1-{6-[1-(3-chloro-2,6-difluorophenyl)ethoxy]-1,3-benzothiazol-2-yl}-3-(2-morpholin-4-ylethyl)urea] | 100 to 10000 nM | > 10000 nM | 154 °C | 500 to 10000 nM
7 | CC(Oc1cc2sc(NC(=O)C3CC3)nc2cc1F)c1c(Cl)ccc(F)c1Cl (stereo not drawn) [Example 67, N-{6-[1-(2,6-dichloro-3-fluorophenyl)ethoxy]-5-fluoro-1,3-benzothiazol-2-yl}cyclopropanecarboxamide] | < 100 nM | < 500 nM | 186 to 189 °C | < 500 nM
8 | CCOCCNC(=O)Nc1nc2cc(F)c(OC(C)c3c(Cl)ccc(F)c3Cl)cc2s1 (stereo not drawn) [Example 86, 1-{6-[1-(2,6-dichloro-3-fluorophenyl)ethoxy]-5-fluoro-1,3-benzothiazol-2-yl}-3-(2-ethoxyethyl)urea] | < 100 nM | 500 to 10000 nM | 166 to 167 °C | < 500 nM
9 | CC(Oc1cc2sc(NC(=O)NCCn3cccc3)nc2cc1F)c1c(Cl)ccc(F)c1Cl (stereo not drawn) [Example 91, 1-{6-[1-(2,6-dichloro-3-fluorophenyl)ethoxy]-5-fluoro-1,3-benzothiazol-2-yl}-3-[2-(1H-pyrrol-1-yl)ethyl]urea] | < 100 nM | 500 to 10000 nM | 178 to 198 °C | 500 to 10000 nM
10 | CC(C)OCCNC(=O)Nc1nc2cc(F)c(OC(C)c3c(Cl)ccc(F)c3Cl)cc2s1 (stereo not drawn) [Example 92, 1-{6-[1-(2,6-dichloro-3-fluorophenyl)ethoxy]-5-fluoro-1,3-benzothiazol-2-yl}-3-(2-isopropoxyethyl)urea] | < 100 nM | 500 to 10000 nM | 177 to 184 °C | < 500 nM
11 | COCCN(C)C(=O)Nc1nc2cc(F)c(OC(C)c3c(Cl)ccc(F)c3Cl)cc2s1 (stereo not drawn) [Example 93, 3-{6-[1-(2,6-dichloro-3-fluorophenyl)ethoxy]-5-fluoro-1,3-benzothiazol-2-yl}-1-(2-methoxyethyl)-1-methylurea] | < 100 nM | 500 to 10000 nM | 62 to 67 °C | 500 to 10000 nM
12 | Cc1cc2nc(NC(=O)NCCN3CCOCC3)sc2cc1OC(C)c1c(Cl)ccc(F)c1Cl (stereo not drawn) [Example 107, 1-{6-[1-(2,6-dichloro-3-fluorophenyl)ethoxy]-5-methyl-1,3-benzothiazol-2-yl}-3-[2-(morpholin-4-yl)ethyl]urea] | < 100 nM | 500 to 10000 nM | 270 to 276 °C | < 500 nM
13 | CCC(Oc1ccc2nc(NC(=O)NCCN3CCOCC3)sc2c1)c1c(Cl)cccc1Cl (stereo not drawn) [Example 122, 1-{6-[1-(2,6-dichlorophenyl)propoxy]-1,3-benzothiazol-2-yl}-3-[2-(morpholin-4-yl)ethyl]urea] | < 100 nM | 500 to 10000 nM | 200 °C | 500 to 10000 nM
